Measurements published in US10806140B2, “Antimicrobial compound” (Physical Sciences, Inc., priority 2018, dated 2020).

Experiments:
S. aureus = assay: AATCC 100 antimicrobial test of derivatized fabrics, S. aureus; format: cell-based; settings: for % Kill at 4 hours / % Kill at 24 hours: dendrimer attached to cotton fabric, S. aureus; for % kill at 4 hrs.: direct functionalization, ~1×10^6 CFU/mL; for % Kill of laundered fabric (4 hrs.): derivatized cotton
Method: The antimicrobial testing during this effort was performed. […] The mixture is incubated for selected times. The mixture is then diluted with PBS and a bacterial culture (agar plate) is performed. The colony forming units (CFUs) are determined and the results are expressed as kill efficiency (percentage kill relative to the initial concentration).

K. pneumoniae = assay: AATCC 100 antimicrobial test of fabrics, K. pneumoniae; format: cell-based; settings: for AM efficacy against K. Pneumoniae (FIG. 37): derivatized cotton swatches
Method: (§1) The antimicrobial testing during this effort was performed. The evaluation of the AM efficacy has been performed using a standard method, based on the AATCC 100 protocol.
(§2) The experimental procedure starts with 1 mL of a bacterial culture (S. aureus representative for Gram positive bacteria or K. pneumoniae representative for Gram negative bacteria) which is inoculated to 2-3 fabric swatches (full absorption). The mixture is incubated for selected times. The mixture is then diluted with PBS and a bacterial culture (agar plate) is performed. The colony forming units (CFUs) are determined and the results are expressed as kill efficiency (percentage kill relative to the initial concentration).
The silver fabrics are considered to be the state-of the art in the realm of AM textiles. Two silver-based consumer products (cotton fabrics) were selected for evaluation of their AM properties compared to those of QAC-I derivatized cotton. The first material comprised a silver-shirt which contained silver nanoparticles. The second material was a silver-towel which contained a permanent coating of silver ions. Swatches of both products were generated and the antimicrobial efficacy was tested using the AATCC 100 protocol (K. Pneumoniae at 4, 24 and 48 hrs. time points).

E. Coli = assay: JIS Z 2801 antimicrobial test of metallic coupons, E. Coli; format: cell-based; settings: clear anodized aluminum coupon, front side; vs control without dendrimer; 24 hours
Method: The AM testing was performed using the standardized JIS Z 2801 method against the Gram negative, E. Coli bacteria. A summary of the procedure is presented below:
The test microorganism is prepared, usually by growth in a liquid culture medium. • The suspension of test microorganism is standardized by dilution in a nutritive broth (this affords microorganisms the opportunity to proliferate during the test). • Control and test surfaces are inoculated with microorganisms, and then the microbial inoculum is covered with a thin, sterile film. Covering the inoculum spreads it, prevents it from evaporating, and ensures close contact with the antimicrobial surface. • Microbial concentrations are determined at “time zero” by elution followed by dilution and plating to agar. • A control is run to verify that the neutralization/elution method effectively neutralizes the antimicrobial agent in the antimicrobial surface being tested. • Inoculated, covered control and antimicrobial test surfaces are allowed to incubate undisturbed in a humid environment for 24 hours, usually at body temperature. • After incubation, microbial concentrations are determined. Reduction of microorganisms relative to the control surface is calculated.

C. Difficile (spores) = assay: Additional AM testing of derivatized cotton, C. Difficile spores; format: cell-based; settings: derivatized cotton fabrics
S. Epidermisis = assay: Broad spectrum AM testing of derivatized cotton, S. Epidermisis; format: cell-based; settings: derivatized cotton fabrics
Method: as §1, §2
(§3) The QAC-I derivatized cotton fabrics were evaluated against several strains of Gram positive and Gram negative bacteria and one fungus (C. Albicans).

[1] = tested on: C. Difficile (vegetative); assay: Additional AM testing of derivatized cotton, C. Difficile vegetative cells; format: cell-based; settings: derivatized cotton fabrics
MRSA = assay: Additional AM testing of derivatized cotton, MRSA; format: cell-based; settings: derivatized cotton fabrics
C. Albicans = assay: Broad spectrum AM testing of derivatized cotton, C. Albicans; format: cell-based; settings: derivatized cotton fabrics
Method: as §1, §2, §3

[2] = tested on: skin of New Zealand White rabbits; assay: Direct Primary Skin Irritation Test - ISO; format: in vivo
Method: Cotton fabrics derivatized with QAC-I dendrimer was evaluated at Toxikon for skin irritation using a GLP protocol based on “Direct Primary Skin Irritation Test—ISO”. The test article was evaluated for its potential to produce primary skin irritation after a single topical minimum 4 hour application to the skin of New Zealand White rabbits. Test sites were scored for erythema and/or edema.

MS2 = settings: derivatized cotton fabrics
Description: Cotton fabrics derivatized with imidazolium dendrimer were further evaluated for the AM efficacy against other pathogens.

`CCCCCCCCCCCC[N+](C)(CCCCCCCCCCCC)CCNC(=O)NCCCNC(=O)CCN(CCCNC(=O)CCN(CCC(=O)NCCCN(CCC(=O)NCCCNC(=O)NCC[N+](C)(CCCCCCCCCCCC)CCCCCCCCCCCC)CCC(=O)NCCCNC(=O)NCC[N+](C)(CCCCCCCCCCCC)CCCCCCCCCCCC)CCc1ccc(Nc2nc(Cl)nc(Cl)n2)cc1)CCC(=O)NCCCNC(=O)NCC[N+](C)(CCCCCCCCCCCC)CCCCCCCCCCCC.[Cl-].[Cl-].[Cl-].[Cl-]` [QAC-D] was tested, and the “% Kill at 4 hours” value (S. aureus) was −38%.

In the case of `CCCCCCCCCCCC[N+](C)(C)CCNC(=O)NCCCNC(=O)CCN(CCCNC(=O)CCN(CCC(=O)NCCCN(CCC(=O)NCCCNC(=O)NCC[N+](C)(C)CCCCCCCCCCCC)CCC(=O)NCCCNC(=O)NCC[N+](C)(C)CCCCCCCCCCCC)CCc1ccc(Nc2nc(Cl)nc(Cl)n2)cc1)CCC(=O)NCCCNC(=O)NCC[N+](C)(C)CCCCCCCCCCCC.[Cl-].[Cl-].[Cl-].[Cl-]` [QAC-4], the “AM efficacy against K. Pneumoniae (FIG. 37)” value (K. pneumoniae) is reported as “very high efficacy”, the “% Kill at 4 hours” value (S. aureus) is reported as over 99% and the “% Kill at 24 hours” value (S. aureus) is reported as 62%.

With `CCCCCCCCCCn1cc[n+](CCNC(=O)NCCCNC(=O)CCN(CCCNC(=O)CCN(CCC(=O)NCCCN(CCC(=O)NCCCNC(=O)NCC[n+]2ccn(CCCCCCCCCC)c2C)CCC(=O)NCCCNC(=O)NCC[n+]2ccn(CCCCCCCCCC)c2C)CCc2ccc(NC(=O)CP(=O)(O)O)cc2)CCC(=O)NCCCNC(=O)NCC[n+]2ccn(CCCCCCCCCC)c2C)c1C.[Cl-].[Cl-].[Cl-].[Cl-]` [AM compound (1)] the “log reduction of the inoculum” value (E. Coli) was over 6 log and the “reduction of the inoculum (%)” value (E. Coli) was over 99.9999%.

In the case of `CCCCCCCCCCCCCCCCCC[N+](C)(C)CCNC(=O)NCCCNC(=O)CCN(CCCNC(=O)CCN(CCC(=O)NCCCN(CCC(=O)NCCCNC(=O)NCC[N+](C)(C)CCCCCCCCCCCCCCCCCC)CCC(=O)NCCCNC(=O)NCC[N+](C)(C)CCCCCCCCCCCCCCCCCC)CCc1ccc(Nc2nc(Cl)nc(Cl)n2)cc1)CCC(=O)NCCCNC(=O)NCC[N+](C)(C)CCCCCCCCCCCCCCCCCC.[Cl-].[Cl-].[Cl-].[Cl-]` [QAC-C18], the “% Kill at 4 hours” value (S. aureus) is reported as 78% and the “% Kill at 24 hours” value (S. aureus) is reported as 11%.

In the case of `CCCCCCCCCCn1cc[n+](CCNC(=O)NCCCNC(=O)CCN(CCCNC(=O)CCN(CCC(=O)NCCCN(CCC(=O)NCCCNC(=O)NCC[n+]2ccn(CCCCCCCCCC)c2C)CCC(=O)NCCCNC(=O)NCC[n+]2ccn(CCCCCCCCCC)c2C)CCc2ccc(Nc3nc(Cl)nc(Cl)n3)cc2)CCC(=O)NCCCNC(=O)NCC[n+]2ccn(CCCCCCCCCC)c2C)c1C.[Cl-].[Cl-].[Cl-].[Cl-]` [QAC-I], the “% Reduction” value (C. Difficile (spores)) is reported as 99.82%, the “AM Efficacy (max.)” value (S. Epidermisis) is reported as over 99.99% and the “% Reduction” value [1] is reported as 99.20%. The “% Reduction” value (MRSA) was 99.80%, the “AM Efficacy (max.)” value (K. pneumoniae; derivatized cotton fabrics, K. Pneumoniae) was over 99.99% and the “AM efficacy against K. Pneumoniae (FIG. 37)” value (K. pneumoniae) was “very high efficacy”. For the same molecule, the “AM Efficacy (max.)” value (C. Albicans) was over 99.99%, the Skin irritation classification ([2]; criteria of the protocol) was “negligible irritant” and the Edema score ([2]; test sites, 24 Hours, Site 1) was 0/0. The Erythema score ([2]; test sites, 24 Hours, Site 1) was 0/0, the Edema score ([2]; test sites, 24 Hours, Site 2) was 0/0 and the Erythema score ([2]; test sites, 24 Hours, Site 2) was 0/0. For the same molecule, the Edema score ([2]; test sites, 48 Hours, Site 1) was 0/0, the Erythema score ([2]; test sites, 48 Hours, Site 1) was 0/0 and the Edema score ([2]; test sites, 48 Hours, Site 2) was 0/0. For the same molecule, the Erythema score ([2]; test sites, 48 Hours, Site 2) was 0/0, the Edema score ([2]; test sites, 60 Minutes, Site 1) was 0/0 and the Erythema score ([2]; test sites, 60 Minutes, Site 1) was 0/0. The Edema score ([2]; test sites, 60 Minutes, Site 2) was 0/0, the Erythema score ([2]; test sites, 60 Minutes, Site 2) was 0/0 and the Edema score ([2]; test sites, 72 Hours, Site 1) was 0/0. The Erythema score ([2]; test sites, 72 Hours, Site 1) was 0/0, the Edema score ([2]; test sites, 72 Hours, Site 2) was 0/0 and the Erythema score ([2]; test sites, 72 Hours, Site 2) was 0/0. For the same molecule, the “Total (Erythema + Edema Scores)/(2 Test Sites × 3 Observation Points)” value ([2]; test sites, per animal, 60 minute scores not included) was 0.0, the “% Kill at 4 hours” value (S. aureus) was over 99% and the “% Kill at 24 hours” value (S. aureus) was over 99%. For the same molecule, the “% kill at 4 hrs.” value (S. aureus; derivatized NYCO fabric) was over 99%, the “AM Efficacy (max.)” value (S. aureus; derivatized cotton fabrics, S. Aureus) was over 99.999% and the “% Kill of laundered fabric (4 hrs.)” value (S. aureus; reverse protocol, laundering detergent None, S. Aureus, % kill relative to final amount of bacteria) was over 99.99%. The “% Kill of laundered fabric (4 hrs.)” value (S. aureus; 1 accelerated cycle 45 minutes at 49° C., Tide 0.23% w/v, S. Aureus) was 24%, the “% Kill of laundered fabric (4 hrs.)” value (S. aureus; 1 accelerated cycle 45 minutes at 49° C., Tween-20 0.23% w/v, S. Aureus) was over 99.99% and the “% kill at 4 hrs.” value (S. aureus; derivatized polyester fabric) was over 99%. For the same molecule, the “% Reduction” value (MS2) was 99.95%.
